Assay results from US10758534B2 (Vertex Pharmaceuticals Incorporated, priority 2014, dated 2020).

Molecular target: T1, F508del (Homo sapiens, UniProt P13569, DEL508-508)
T1 construct: expressed in transfected cells
Experiment: Protocol 1: membrane potential optical assay (FLIPR III, voltage sensing dye), identification of potentiator compounds
Assay type: cell-based
Conditions: Table 3, compounds of Table 1
Outline: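 Read-out: change in voltage-sensing dye fluorescence (FLIPR III) as a measure of F508del conductance. Temperature-corrected (27° C, 24 hrs) NIH 3T3 cells expressing F508del are pretreated with potentiators, dye-loaded, then stimulated with forskolin under a chloride ion gradient using chloride-free gluconate bath.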

T1 sequence (P13569 with tags, fused parts or gaps DEL508-508): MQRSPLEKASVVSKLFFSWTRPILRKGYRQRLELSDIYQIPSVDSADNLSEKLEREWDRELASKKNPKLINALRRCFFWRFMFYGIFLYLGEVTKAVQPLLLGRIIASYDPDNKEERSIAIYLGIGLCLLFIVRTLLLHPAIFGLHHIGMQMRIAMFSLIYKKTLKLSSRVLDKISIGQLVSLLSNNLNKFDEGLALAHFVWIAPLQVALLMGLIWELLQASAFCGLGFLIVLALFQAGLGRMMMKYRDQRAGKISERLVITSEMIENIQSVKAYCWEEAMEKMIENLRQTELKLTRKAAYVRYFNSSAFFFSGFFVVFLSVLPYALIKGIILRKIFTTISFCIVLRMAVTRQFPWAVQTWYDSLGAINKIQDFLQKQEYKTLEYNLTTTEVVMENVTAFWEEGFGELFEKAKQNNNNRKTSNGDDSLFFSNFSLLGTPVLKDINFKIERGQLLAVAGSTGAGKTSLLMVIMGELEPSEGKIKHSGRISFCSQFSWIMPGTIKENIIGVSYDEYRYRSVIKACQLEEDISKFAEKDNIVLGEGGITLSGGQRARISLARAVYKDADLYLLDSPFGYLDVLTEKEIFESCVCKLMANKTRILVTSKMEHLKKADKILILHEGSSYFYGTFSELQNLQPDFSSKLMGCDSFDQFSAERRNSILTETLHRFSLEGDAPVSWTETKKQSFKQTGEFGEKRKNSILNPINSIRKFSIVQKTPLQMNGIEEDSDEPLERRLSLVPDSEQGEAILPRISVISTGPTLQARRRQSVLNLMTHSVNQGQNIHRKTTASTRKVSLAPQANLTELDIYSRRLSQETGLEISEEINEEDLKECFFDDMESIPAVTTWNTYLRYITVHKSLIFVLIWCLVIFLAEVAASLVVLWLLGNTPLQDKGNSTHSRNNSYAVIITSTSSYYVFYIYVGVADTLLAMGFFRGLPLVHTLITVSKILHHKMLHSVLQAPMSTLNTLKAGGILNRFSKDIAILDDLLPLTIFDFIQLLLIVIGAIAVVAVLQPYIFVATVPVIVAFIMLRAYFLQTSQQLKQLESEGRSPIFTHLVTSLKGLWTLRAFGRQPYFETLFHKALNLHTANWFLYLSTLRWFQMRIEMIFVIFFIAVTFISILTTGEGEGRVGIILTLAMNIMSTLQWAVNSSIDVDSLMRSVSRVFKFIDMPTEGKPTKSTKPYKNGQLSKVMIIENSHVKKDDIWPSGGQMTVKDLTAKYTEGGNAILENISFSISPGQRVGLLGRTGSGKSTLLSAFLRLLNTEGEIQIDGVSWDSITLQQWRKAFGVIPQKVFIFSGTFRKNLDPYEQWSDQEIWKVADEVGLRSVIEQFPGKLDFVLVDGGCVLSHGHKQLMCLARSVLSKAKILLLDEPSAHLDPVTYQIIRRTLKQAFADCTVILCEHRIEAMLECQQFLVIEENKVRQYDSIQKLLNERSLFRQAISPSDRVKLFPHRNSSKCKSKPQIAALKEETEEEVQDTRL

Structure (SMILES)	EC30
C[C@@H]1CN(c2nc(-c3cccc(O)c3)ccc2C(=O)NS(=O)(=O)c2cccnc2N)C(C)(C)C1 [Compound 1820, N-[(2-amino-3-pyridyl)sulfonyl]-6-(3-hydroxyphenyl)-2-[(4S)-2,2,4-trimethylpyrrolidin-1-yl]pyridine-3-carboxamide]	++ (“++” means between 3 uM and 10 uM)
CC(C)COc1cc(F)cc(-c2ccc(C(=O)NS(=O)(=O)c3cccc(N)n3)c(N3CC4C5CCC(C5)C43)n2)c1 (centres unmarked) [Compound 1821, N-[(6-amino-2-pyridyl)sulfonyl]-6-(3-fluoro-5-isobutoxy-phenyl)-2-BLAHyl-pyridine-3-carboxamide]	+++ (“+++” means <3 uM)
CCOc1cccc(-c2ccc(C(=O)NS(=O)(=O)c3cccnc3N)c(N3C[C@@H](C)CC3(C)C)n2)c1 [Compound 1822, N-[(2-amino-3-pyridyl)sulfonyl]-6-(3-ethoxyphenyl)-2-[(4S)-2,2,4-trimethylpyrrolidin-1-yl]pyridine-3-carboxamide]	+++ (“+++” means <3 uM)
C[C@@H]1CN(c2nc(-c3cccc(C#N)c3)ccc2C(=O)NS(=O)(=O)c2cccnc2N)C(C)(C)C1 [Compound 1824, N-[(2-amino-3-pyridyl)sulfonyl]-6-(3-cyanophenyl)-2-[(4S)-2,2,4-trimethylpyrrolidin-1-yl]pyridine-3-carboxamide]	+++ (“+++” means <3 uM)
COc1cc(OC)cc(-c2ccc(C(=O)NS(=O)(=O)c3cccnc3N)c(N3C[C@@H](C)CC3(C)C)n2)c1 [Compound 1825, N-[(2-amino-3-pyridyl)sulfonyl]-6-(3,5-dimethoxyphenyl)-2-[(4S)-2,2,4-trimethylpyrrolidin-1-yl]pyridine-3-carboxamide]	+++ (“+++” means <3 uM)
Cc1cccc(-c2ccc(C(=O)NS(=O)(=O)c3cccnc3N)c(N3C[C@@H](C)CC3(C)C)n2)c1 [Compound 1829, N-[(2-amino-3-pyridyl)sulfonyl]-6-(m-tolyl)-2-[(4S)-2,2,4-trimethylpyrrolidin-1-yl]pyridine-3-carboxamide]	+++ (“+++” means <3 uM)
COc1ccc(F)cc1-c1ccc(C(=O)NS(=O)(=O)c2ccc[nH]c2=O)c(N2C[C@@H](C)CC2(C)C)n1 [Compound 1830, 6-(5-fluoro-2-methoxy-phenyl)-N-[(2-oxo-1H-pyridin-3-yl)sulfonyl]-2-[(4S)-2,2,4-trimethylpyrrolidin-1-yl]pyridine-3-carboxamide]	+++ (“+++” means <3 uM)
CC(C)COc1cc(F)cc(-c2ccc(C(=O)NS(=O)(=O)c3ccccn3)c(N3C[C@@H](C)CC3(C)C)n2)c1 [Compound 1832, 6-(3-fluoro-5-isobutoxy-phenyl)-N-(2-pyridylsulfonyl)-2-[(4S)-2,2,4-trimethylpyrrolidin-1-yl]pyridine-3-carboxamide]	+++ (“+++” means <3 uM)
CC1CN(c2ncccc2C(=O)NS(=O)(=O)c2cccc(OC3CCCC3)n2)C(C)(C)C1 (centres unmarked) [Compound 1834, N—[[6-(cyclopentoxy)-2-pyridyl]sulfonyl]-2-(2,2,4-trimethylpyrrolidin-1-yl)pyridine-3-carboxamide]	+++ (“+++” means <3 uM)
CC(C)COc1cc(F)cc(-c2ccc(C(=O)NS(=O)(=O)c3cccc(N)n3)c(N3CC(C(F)(F)F)CCC3C)n2)c1 (centres unmarked) [Compound 1835, N-[(6-amino-2-pyridyl)sulfonyl]-6-(3-fluoro-5-isobutoxy-phenyl)-2-[2-methyl-5-(trifluoromethyl)-1-piperidyl]pyridine-3-carboxamide]	+++ (“+++” means <3 uM)
CC(C)COc1cc(F)cc(-c2ccc(C(=O)NS(=O)(=O)c3ccccc3O)c(N3C[C@@H](C)CC3(C)C)n2)c1 [Compound 1836, 6-(3-fluoro-5-isobutoxy-phenyl)-N-(2-hydroxyphenyl)sulfonyl-2-[(4S)-2,2,4-trimethylpyrrolidin-1-yl]pyridine-3-carboxamide]	+++ (“+++” means <3 uM)
C[C@@H]1CN(c2nc(-c3cc(F)cc(F)c3F)ccc2C(=O)NS(=O)(=O)c2ccc[nH]c2=O)C(C)(C)C1 [Compound 1837, N-[(2-oxo-1H-pyridin-3-yl)sulfonyl]-6-(2,3,5-trifluorophenyl)-2-[(4S)-2,2,4-trimethylpyrrolidin-1-yl]pyridine-3-carboxamide]	+++ (“+++” means <3 uM)
Cc1cc(C)cc(-c2ccc(C(=O)NS(=O)(=O)N3CC[C@H](N)C3)c(N3C[C@@H](C)CC3(C)C)n2)c1 [Compound 1839, N-[(3S)-3-aminopyrrolidin-1-yl]sulfonyl-6-(3,5-dimethylphenyl)-2-[(4S)-2,2,4-trimethylpyrrolidin-1-yl]pyridine-3-carboxamide]	+++ (“+++” means <3 uM)
CC(C)COc1cc(F)cc(-c2ccc(C(=O)NS(=O)(=O)c3cccc(N)n3)c(N3CCC3C)n2)c1 (centres unmarked) [Compound 1840, N-[(6-amino-2-pyridyl)sulfonyl]-6-(3-fluoro-5-isobutoxy-phenyl)-2-(2-methylazetidin-1-yl)pyridine-3-carboxamide]	+++ (“+++” means <3 uM)
CCOc1cc(C)cc(-c2cnc(N3CC(C)CC3(C)C)c(C(=O)NS(=O)(=O)c3cccc(N)n3)c2)c1 (centres unmarked) [Compound 1843, N-[(6-amino-2-pyridyl)sulfonyl]-5-(3-ethoxy-5-methyl-phenyl)-2-(2,2,4-trimethylpyrrolidin-1-yl)pyridine-3-carboxamide]	+++ (“+++” means <3 uM)
CC(C)Oc1ccn(-c2ccc(C(=O)NS(=O)(=O)c3cccnc3N)c(N3C[C@@H](C)CC3(C)C)n2)n1 [Compound 1844, N-[(2-amino-3-pyridyl)sulfonyl]-6-(3-isopropoxypyrazol-1-yl)-2-[(4S)-2,2,4-trimethylpyrrolidin-1-yl]pyridine-3-carboxamide]	+++ (“+++” means <3 uM)
CCN(CC)c1cccc(-c2ccc(C(=O)NS(=O)(=O)c3cccnc3N)c(N3C[C@@H](C)CC3(C)C)n2)n1 [Compound 1845, N-[(2-amino-3-pyridyl)sulfonyl]-6-[6-(diethylamino)-2-pyridyl]-2-[(4S)-2,2,4-trimethylpyrrolidin-1-yl]pyridine-3-carboxamide]	+++ (“+++” means <3 uM)
C[C@@H]1CN(c2nc(C(C)(C)C)c(C(O)C(O)C3CCCCC3)cc2C(=O)NS(=O)(=O)c2cccc(N)n2)C(C)(C)C1 (some centres unmarked) [Compound 1846]	+++ (“+++” means <3 uM)
CCOc1cccc(-c2ccc(C(=O)NS(=O)(=O)c3cccnc3N)c(N3C[C@@H](C)CC3(C)C)n2)c1F [Compound 1847, N-[(2-amino-3-pyridyl)sulfonyl]-6-(3-ethoxy-2-fluoro-phenyl)-2-[(4S)-2,2,4-trimethylpyrrolidin-1-yl]pyridine-3-carboxamide]	+++ (“+++” means <3 uM)
CCOc1ccccc1-c1ccc(C(=O)NS(=O)(=O)c2ccc[nH]c2=O)c(N2C[C@@H](C)CC2(C)C)n1 [Compound 1848, 6-(2-ethoxyphenyl)-N-[(2-oxo-1H-pyridin-3-yl)sulfonyl]-2-[(4S)-2,2,4-trimethylpyrrolidin-1-yl]pyridine-3-carboxamide]	+++ (“+++” means <3 uM)

The next lines start with the values.

EC30	Structure (SMILES)
+++ (“+++” means <3 uM)	CC1CN(c2ncccc2C(=O)NS(=O)(=O)c2cccc(Nc3ccc4[nH]ccc4c3)n2)C(C)(C)C1 (centres unmarked) [Compound 1823, N—[[6-(1H-indol-5-ylamino)-2-pyridyl]sulfonyl]-2-(2,2,4-trimethylpyrrolidin-1-yl)pyridine-3-carboxamide]
+++ (“+++” means <3 uM)	CC1CN(c2ncccc2C(=O)NS(=O)(=O)c2cccc(Nc3cccc4cccnc34)n2)C(C)(C)C1 (centres unmarked) [Compound 1826, N—[[6-(8-quinolylamino)-2-pyridyl]sulfonyl]-2-(2,2,4-trimethylpyrrolidin-1-yl)pyridine-3-carboxamide]
+++ (“+++” means <3 uM)	CC1CN(c2ncccc2C(=O)NS(=O)(=O)c2cccc(N(C)Cc3ccccc3)n2)C(C)(C)C1 (centres unmarked) [Compound 1827, N—[[6-[benzyl(methyl)amino]-2-pyridyl]sulfonyl]-2-(2,2,4-trimethylpyrrolidin-1-yl)pyridine-3-carboxamide]
+++ (“+++” means <3 uM)	CCOc1cccc(Oc2cccc(S(=O)(=O)NC(=O)c3cccnc3N3CC(C)CC3(C)C)n2)c1 (centres unmarked) [Compound 1828, N—[[6-(3-ethoxyphenoxy)-2-pyridyl]sulfonyl]-2-(2,2,4-trimethylpyrrolidin-1-yl)pyridine-3-carboxamide]
+++ (“+++” means <3 uM)	CC1CN(c2ncccc2C(=O)NS(=O)(=O)c2cccc(Oc3ccc(F)c(Cl)c3)n2)C(C)(C)C1 (centres unmarked) [Compound 1831, N—[[6-(3-chloro-4-fluoro-phenoxy)-2-pyridyl]sulfonyl]-2-(2,2,4-trimethylpyrrolidin-1-yl)pyridine-3-carboxamide]
+++ (“+++” means <3 uM)	CC1CN(c2ncccc2C(=O)NS(=O)(=O)c2cccc(N3CCc4c([nH]c5ccccc45)C3)n2)C(C)(C)C1 (centres unmarked) [Compound 1833, N—[[6-(1,3,4,9-tetrahydropyrido[3,4-b]indol-2-yl)-2-pyridyl]sulfonyl]-2-(2,2,4-trimethylpyrrolidin-1-yl)pyridine-3-carboxamide]
+++ (“+++” means <3 uM)	CC1CN(c2ncccc2C(=O)NS(=O)(=O)c2cccc(N3Cc4ccccc4C3)n2)C(C)(C)C1 (centres unmarked) [Compound 1838, N-[(6-isoindolin-2-yl-2-pyridyl)sulfonyl]-2-(2,2,4-trimethylpyrrolidin-1-yl)pyridine-3-carboxamide]
+++ (“+++” means <3 uM)	CC1CN(c2ncccc2C(=O)NS(=O)(=O)c2cccc(Nc3cccc(Cl)c3)n2)C(C)(C)C1 (centres unmarked) [Compound 1841, N—[[6-(3-chloroanilino)-2-pyridyl]sulfonyl]-2-(2,2,4-trimethylpyrrolidin-1-yl)pyridine-3-carboxamide]
+++ (“+++” means <3 uM)	CC1CN(c2ncccc2C(=O)NS(=O)(=O)c2cccc(O[C@H](C)c3ccccc3)n2)C(C)(C)C1 (stereo partly drawn) [Compound 1842, N—[[6-[(1R)-1-phenylethoxy]-2-pyridyl]sulfonyl]-2-(2,2,4-trimethylpyrrolidin-1-yl)pyridine-3-carboxamide]
